Where “and” joins values, the source holds several entries; their conditions need not be identical. Identical values can stand only once. Like-named read-outs stand apart in the source and are kept apart here.
Assays:
[1] = molecular target: T1, Drosophila OR13a (Drosophila melanogaster, UniProt Q9VXL0); test: Calcium ion fluorescence (GCaMP6) assay, OR13a stable HEK293 cell line; format: cell-based; settings: for DF norm AVERAGE OR13a: normalized fluorescence change, values below 0.05 threshold given as 0
T1 construct: expressed in transfected cells
T1 sequence (Q9VXL0 1-418): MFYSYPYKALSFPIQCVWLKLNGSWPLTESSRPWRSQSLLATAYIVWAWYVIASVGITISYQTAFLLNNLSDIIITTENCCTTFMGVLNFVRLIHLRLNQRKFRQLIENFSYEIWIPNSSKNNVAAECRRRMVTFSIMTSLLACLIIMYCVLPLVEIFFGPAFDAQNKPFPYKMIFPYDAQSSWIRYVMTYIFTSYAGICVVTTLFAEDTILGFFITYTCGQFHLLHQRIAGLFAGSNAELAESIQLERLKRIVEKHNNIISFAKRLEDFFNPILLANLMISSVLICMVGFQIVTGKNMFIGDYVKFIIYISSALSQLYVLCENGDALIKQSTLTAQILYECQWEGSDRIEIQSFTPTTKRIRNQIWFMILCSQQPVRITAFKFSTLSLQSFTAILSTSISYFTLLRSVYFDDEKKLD
T1 sequence (Q9VNB5 1-486 partner): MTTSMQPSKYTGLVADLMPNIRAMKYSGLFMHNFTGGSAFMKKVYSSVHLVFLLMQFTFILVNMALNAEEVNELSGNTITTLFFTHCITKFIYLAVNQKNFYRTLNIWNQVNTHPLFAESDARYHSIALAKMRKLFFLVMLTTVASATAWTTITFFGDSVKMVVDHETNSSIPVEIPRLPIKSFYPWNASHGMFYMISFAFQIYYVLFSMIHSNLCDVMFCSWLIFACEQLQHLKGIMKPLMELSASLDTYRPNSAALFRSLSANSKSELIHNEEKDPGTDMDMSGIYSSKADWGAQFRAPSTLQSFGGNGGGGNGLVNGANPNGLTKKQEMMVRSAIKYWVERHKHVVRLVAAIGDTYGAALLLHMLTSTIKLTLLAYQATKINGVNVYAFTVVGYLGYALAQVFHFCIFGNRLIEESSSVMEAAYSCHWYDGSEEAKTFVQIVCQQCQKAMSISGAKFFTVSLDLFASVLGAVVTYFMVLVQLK
Procedure, shortened: (§1)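 Responses are VUAA1-normalized ΔF: each VOC-evoked calcium signal, (FMAX−F0)/F0 over 30 s after injection, divided by the same line's mean 50 µM VUAA1 response. Cells were doxycycline-induced HEK293 with GCaMP6 and the cognate Drosophila OR, in HEPES buffer pH 7.3; ligands tested 0.01–100 μM.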

[2] = molecular target: T2, Drosophila OR71a (Drosophila melanogaster, UniProt Q9VUK5); test: Calcium ion fluorescence (GCaMP6) assay, OR71a stable HEK293 cell line; format: cell-based; settings: for activation at 1 µM / activation at 10 µM / activation at 100 µM: HEK293, read-out: OR71a response (VUAA1-normalized response); for Average response: OR71a cell line, VUAA1-normalized response, mean of biological replicates; for DF norm AVERAGE OR71a: normalized fluorescence change, values below 0.05 threshold given as 0; for OR71a Average response (VUAA1-normalized): 50 μM VUAA1 = 1
T2 construct: expressed in transfected cells
T2 sequence (Q9VUK5 1-378): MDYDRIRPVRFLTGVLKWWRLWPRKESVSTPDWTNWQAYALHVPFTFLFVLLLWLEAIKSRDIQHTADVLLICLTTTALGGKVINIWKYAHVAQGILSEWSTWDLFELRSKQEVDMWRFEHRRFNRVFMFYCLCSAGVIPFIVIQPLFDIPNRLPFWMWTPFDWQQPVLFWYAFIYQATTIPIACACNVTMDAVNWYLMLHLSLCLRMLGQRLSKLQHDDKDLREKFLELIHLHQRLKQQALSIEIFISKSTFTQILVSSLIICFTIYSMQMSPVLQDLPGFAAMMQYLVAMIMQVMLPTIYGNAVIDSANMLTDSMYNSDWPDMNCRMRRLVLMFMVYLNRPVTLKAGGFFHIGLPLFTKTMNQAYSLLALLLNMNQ
T2 sequence (Q9VNB5 1-486 partner): T1 sequence (Q9VNB5 1-486 partner)
Procedure, shortened: as §1

[3] = HEK293, read-out: OR13a Average response (VUAA1-normalized), 1 μM VOC, 50 μM VUAA1 = 1, responses not exceeding 0.05 considered 0
[4] = HEK293, read-out: OR13a Average response (VUAA1-normalized), 10 μM VOC, 50 μM VUAA1 = 1, responses not exceeding 0.05 considered 0
[5] = HEK293, read-out: OR13a Average response (VUAA1-normalized), 100 μM VOC, 50 μM VUAA1 = 1, responses not exceeding 0.05 considered 0
[6] = HEK293, read-out: OR13a response (VUAA1-normalized response), VOC concentration 1 μM
[7] = HEK293, read-out: OR13a response (VUAA1-normalized response), VOC concentration 10 μM
[8] = HEK293, read-out: OR13a response (VUAA1-normalized response), VOC concentration 100 μM

C=CC(O)CCCCC (centres unmarked) [1-octen-3-ol]
EC50 ([1]; AVERAGE EC50, the 12th table, corresponds to average EC50, given with 95% confidence interval): 1440 nM
EC50 ([1]; EC50, AVERAGE of replicate fits, the 12th table, N 5): 1440 nM
EC50 ([1]; EC50, AVERAGE of replicate fits, the 12th table, arithmetic average, N 5): 1630 nM
EC50 ([1]; EC50, OR13a cell line, fitted Hill equation, Hill coefficient constrained to 1, maximal response max 1): 1440 nM
EC50 ([1]; EC50, fitted average curve, the 12th table, fit to the average curve, n 0.854956): 1410 nM
EC50 ([1]; EC50, fitted parameter per biological replicate, the 12th table, OR13a D-R 1-octen-3-ol, individual replicate fits, MIN 0, n 1): 2370 nM and 2300 nM and 753 nM and 1970 nM and 761 nM
EC50 ([1]; EC50, fitted parameter per biological replicate, the 12th table, individual replicate fits): 2370 nM and 2300 nM and 753 nM and 1970 nM and 761 nM
activation at 1 µM [1, 3]: 31%
activation at 10 µM [1, 4]: 41%
activation at 100 µM [1, 5]: 38%
activation at 1 µM [1, 6]: 31%
activation at 10 µM [1, 7]: 41%
activation at 100 µM [1, 8]: 38%
Emax ([1]; HEK293, read-out: VUAA1 normalized MAX response): 46%
DF norm AVERAGE OR13a ([1]; concentration 1): 0.3125
DF norm AVERAGE OR13a ([1]; concentration 10): 0.4133
DF norm AVERAGE OR13a ([1]; concentration 100): 0.3797
dose-response, response per biological replicate ([1]; the 12th table, VOC concentration 0.15): 0 (2×) and 0.1313
dose-response, AVERAGE response ([1]; the 12th table, VOC concentration 0.15, N 3): 0.04376
dose-response, response per biological replicate ([1]; the 12th table, VOC concentration 0.3): 0 (3×) and 0.1249 and 0.1272
dose-response, AVERAGE response ([1]; the 12th table, VOC concentration 0.3, N 5): 0.0504
dose-response, response per biological replicate ([1]; the 12th table, VOC concentration 0.6): 0 (2×) and 0.1801 and 0.08156 and 0.213
dose-response, AVERAGE response ([1]; the 12th table, VOC concentration 0.6, N 5): 0.09494
dose-response, response per biological replicate ([1]; the 12th table, VOC concentration 1.25): 0.2071 and 0.2793 and 0.1886 and 0.3516
dose-response, AVERAGE response ([1]; the 12th table, VOC concentration 1.25, N 4): 0.2566
dose-response, response per biological replicate ([1]; the 12th table, VOC concentration 2.5): 0.2646 and 0.1888 and 0.4175 and 0.197 and 0.3823
dose-response, AVERAGE response ([1]; the 12th table, VOC concentration 2.5, N 5): 0.2901
dose-response, response per biological replicate ([1]; the 12th table, VOC concentration 5): 0.42 and 0.3195 and 0.4159 and 0.2978 and 0.4731
dose-response, AVERAGE response ([1]; the 12th table, VOC concentration 5, N 5): 0.3853
dose-response, response per biological replicate ([1]; the 12th table, VOC concentration 10): 0.4322 and 0.4316 and 0.4215 and 0.2626 and 0.4446
dose-response, AVERAGE response ([1]; the 12th table, VOC concentration 10, N 5): 0.3985
dose-response, response per biological replicate ([1]; the 12th table, VOC concentration 20): 0.4616 and 0.4143 and 0.5545 and 0.335 and 0.5659
dose-response, AVERAGE response ([1]; the 12th table, VOC concentration 20, N 5): 0.4662
dose-response, response per biological replicate ([1]; the 12th table, VOC concentration 40): 0.4507 and 0.4868 and 0.5125 and 0.286 and 0.5426
dose-response, AVERAGE response ([1]; the 12th table, VOC concentration 40, N 5): 0.4557
dose-response, response per biological replicate ([1]; the 12th table, VOC concentration 60): 0.3021 and 0.4978 and 0.4725 and 0.5843
dose-response, AVERAGE response ([1]; the 12th table, VOC concentration 60, N 4): 0.4642
dose-response, response per biological replicate ([1]; the 12th table, VOC concentration 80): 0.4797 and 0.3236 and 0.407 and 0.4017 and 0.4897
dose-response, AVERAGE response ([1]; the 12th table, VOC concentration 80, N 5): 0.4203
dose-response, response per biological replicate ([1]; the 12th table, VOC concentration 100): 0.3778 and 0.3442 and 0.2898 and 0.4501
dose-response, AVERAGE response ([1]; the 12th table, VOC concentration 100, N 4): 0.3654
AVERAGE MAX ([1]; the 12th table, average of replicate fits, N 5): 0.459
MAX, fitted average curve ([1]; the 12th table, fit to the average curve, n 0.854956): 0.4618
MAX, fitted parameter per biological replicate ([1]; the 12th table, individual replicate fits): 0.5125 and 0.4135 and 0.4717 and 0.37 and 0.5273
activation at 1 µM [2]: 0%
activation at 10 µM [2]: 0%
activation at 100 µM [2]: 5.55%
Average response ([2]; cc. 1 µM): 0.00
Average response ([2]; cc. 10 µM): 0.0223
Average response ([2]; cc. 100 µM): 0.0555
DF norm AVERAGE OR71a ([2]; concentration 1): 0
DF norm AVERAGE OR71a ([2]; concentration 10): 0
DF norm AVERAGE OR71a ([2]; concentration 100): 0.05555

CCCCCC(C)O (centres unmarked) [2-heptanol]
activation at 1 µM [1, 3]: 4%
activation at 10 µM [1, 4]: 0%
activation at 100 µM [1, 5]: 8%
activation at 1 µM [1, 6]: 0%
activation at 10 µM [1, 7]: 0%
activation at 100 µM [1, 8]: 8%
DF norm AVERAGE OR13a ([1]; concentration 1): 0
DF norm AVERAGE OR13a ([1]; concentration 10): 0
DF norm AVERAGE OR13a ([1]; concentration 100): 0.07697
OR71a Average response (VUAA1-normalized) ([2]; 1 μM VOC): 0.00
OR71a Average response (VUAA1-normalized) ([2]; 10 μM VOC): 0.04
OR71a Average response (VUAA1-normalized) ([2]; 100 μM VOC): 0.16
activation at 1 µM [2]: 0%
activation at 10 µM [2]: 0%
activation at 100 µM [2]: 16%
Average response ([2]; cc. 1 µM): 0.00
Average response ([2]; cc. 10 µM): 0.04
Average response ([2]; cc. 100 µM): 0.16
DF norm AVERAGE OR71a ([2]; concentration 1): 0
DF norm AVERAGE OR71a ([2]; concentration 10): 0
DF norm AVERAGE OR71a ([2]; concentration 100): 0.1631
